pIC50: −log10 of the molar value. Where two headings read alike, the source gives them in different places.
How the values were obtained:
[1] = molecular target: TYK2 (Homo sapiens, UniProt P29597); test: JAK/TYK2 assay (Kinase Glo luminescence): Tyk2 kinase assay; format: biochemical; conditions: 9 nM enzyme, 2 uM ATP, 30 uM IRS-1, 1 hr; read-out: Tyk2 kinase assay: IC50 Geomean
Experimental: Example A: JAK/TYK2 Assay 10 mM test compound stock or 1 mM control compound stock (tofocitinib, ruxolitinib or staurosporine) in DMSO was diluted to 0.4 mM in DMSO. A 3-fold series dilution was then performed in DMSO to generate 10 different compound concentrations. The assay was carried out in 384-well white plate. 0.5 μL of 40× compound DMSO solution at different concentrations was mixed with 10 uL 2× enzyme prepared in reaction buffer (20 mM HEPES, 10 mM MgCl2, 0.01% Tween, 1 mM DTT, pH 7.5). 10 uL 2× substrate mixture prepared in reaction buffer was then added to start the reaction. A short spin was done to settle down all solutions to the bottom of the plate. Final concentrations of test compound in the reaction mixture were 10000, 3333, 1111, 370, 123, 41.2, 13.7, 4.57, 1.52 and 0.51 nM, Concentrations of control compound were ten times less. Enzymatic reaction was conducted at 25° C. for 1-2 hours. 10 uL of Kinase Glo Reagents was added to stop the reaction and generate the luminescent signal which was measured using Envision. Luminescence signal was inversely related to kinase activity. […] The mixture without any compound was the positive control. [table]

[2] = test system: JAK2: GM-CSF stimulated STAT5 phosphorylation; test: Co-stimulation assay in lysed whole blood; JAK2: GM-CSF stimulated STAT5 phosphorylation; format: cell-based, human; conditions: for pIC50: lysed human whole blood, GM-CSF 10 ng/mL (with IFNa 100 ng/mL), pSTAT5 by flow cytometry, read-out: GMCSF/J2/pS5: GeoMean; for IC50: Homo sapiens, read-out: GMCSF/J2/pS5: GeoMean (nM)
Experimental: Example C: Co-Stimulation Assay in Lysed Whole Blood; JAK2: GM-CSF Stimulated STAT5 Phosphorylation and JAK1/TYK2 Stimulated STAT1 Phosphorylation Assay
Human Blood Lysis using abcam's RBC lysis buffer
Dilute RBC lysis buffer to 1× in distilled water. Add 2 mL blood to 38 mL of 1×RBC-lysis buffer. Incubate for 15 mins at RT, in dark. Spin at 300 g, 5 mins, to collect the pellet. Re-lyse if necessary. Re-suspend pellet in 5 mL of cRPMI.
Aliquot 80 μL of lysed human blood in to wells of 96 deep-well plate. Add 10 μl of (10× conc.) of different concentrations of compounds to all wells except controls (unstained and unstimulated) and mix it with the help of 100 uL multichannel Add 10 uL of RPMI media in controls. For dilution of compounds and dilution range please refer Appendix. Incubate on water bath or CO2 incubator for 1 hour at 37° C. Add 10 μl of (10× conc.) of cytokine mix (GM-CSF and IFNa) (final conc. 10 ng/mL of GM-CSF and 100 ng/mL of IFNa) to each well except unstimulated and unstained controls and incubate further for 20 minutes on water bath at 37° C.
Add 900 μL of prewarmed 1× Fix/Lyse solution (Appendix) and mix it properly using 1000 μl multichannel, incubate further on water bath at 37° C. for 10 minutes (which includes time of addition). Centrifuge at 800×g for 5 minutes at 40° C.; remove 900 uL of supernatant and add 900 μL of 1×PBS. Centrifuge at 800×g for 5 minutes at 40° C., remove 900 μL of supernatant. Wash one more time with 900 μL of PBS (optional) and resuspend pellets in 100 uL of PBS.
Disrupt the pellet by gentle tapping and resuspend in 1000 μL of BD Phosflow Perm Buffer III and incubate plate on ice for 30 minutes. Centrifuge plate at 800×g for 5 minutes at 40° C. Wash two more times with 1000 μL of BD Pharmingen Stain Buffer.
Disrupt the pellet by gentle tapping. Resuspend pellets in 100 uL of Stain Buffer and add 5 μL of pSTAT5_AF488 Ab and 5 uL of pSTAT1_PE in all wells except unstained control and mix properly using 200 μl multichannel, incubate overnight at […]. Add 900 μL of wash buffer and centrifuge at 1800 rpm for 3 minutes at […]. Wash one more time with 1000 μL of BD Pharmingen Stain Buffer. Finally resuspend the pellet in 300 uL of BD Pharmingen Stain Buffer. Transfer the cells to 96-well v-bottom plate and acquire the cells in Beckman Coulter CytExpert. Acquiring cells in Flow Cytometer: Keep the threshold value to 250 and cell concentration should not exceed 100-500 cells/4. Acquire at least 5,000-10,000 cells.
RPMI 1640 Complete Medium: RPMI 1640 media+10% FBS.
Cytokine dilution: 1) GM-CSF Stock at 100 ug/mL. Prepare an intermediate dilution of 1 ug/mL by adding 2 uL of stock into 198 uL of cRPMI. Further dilute to 100 ng/mL by adding 100 uL of the intermediate stock to 900 uL of cRPMI. 2) IFNa Stock at 200 ug/mL. Dilute IFNa stock 1:200 by adding 5 uL of stock into the 1000 uL of 100 ng/mL GM-CSF working stock as above to give a combined working stock of 1000 ng/mL of IFNa and 100 ng/mL GM-CSF (10×). Keep it on ice until used.
Lyse/Fix buffer preparation: Dilute 5× Lyse/Fix buffer to 1× using MQ water and keep at 37° C. until used.
BD Phosflow perm buffer III: Keep on ice/fridge

Sequence of TYK2 (P29597 whole entry, species assumed): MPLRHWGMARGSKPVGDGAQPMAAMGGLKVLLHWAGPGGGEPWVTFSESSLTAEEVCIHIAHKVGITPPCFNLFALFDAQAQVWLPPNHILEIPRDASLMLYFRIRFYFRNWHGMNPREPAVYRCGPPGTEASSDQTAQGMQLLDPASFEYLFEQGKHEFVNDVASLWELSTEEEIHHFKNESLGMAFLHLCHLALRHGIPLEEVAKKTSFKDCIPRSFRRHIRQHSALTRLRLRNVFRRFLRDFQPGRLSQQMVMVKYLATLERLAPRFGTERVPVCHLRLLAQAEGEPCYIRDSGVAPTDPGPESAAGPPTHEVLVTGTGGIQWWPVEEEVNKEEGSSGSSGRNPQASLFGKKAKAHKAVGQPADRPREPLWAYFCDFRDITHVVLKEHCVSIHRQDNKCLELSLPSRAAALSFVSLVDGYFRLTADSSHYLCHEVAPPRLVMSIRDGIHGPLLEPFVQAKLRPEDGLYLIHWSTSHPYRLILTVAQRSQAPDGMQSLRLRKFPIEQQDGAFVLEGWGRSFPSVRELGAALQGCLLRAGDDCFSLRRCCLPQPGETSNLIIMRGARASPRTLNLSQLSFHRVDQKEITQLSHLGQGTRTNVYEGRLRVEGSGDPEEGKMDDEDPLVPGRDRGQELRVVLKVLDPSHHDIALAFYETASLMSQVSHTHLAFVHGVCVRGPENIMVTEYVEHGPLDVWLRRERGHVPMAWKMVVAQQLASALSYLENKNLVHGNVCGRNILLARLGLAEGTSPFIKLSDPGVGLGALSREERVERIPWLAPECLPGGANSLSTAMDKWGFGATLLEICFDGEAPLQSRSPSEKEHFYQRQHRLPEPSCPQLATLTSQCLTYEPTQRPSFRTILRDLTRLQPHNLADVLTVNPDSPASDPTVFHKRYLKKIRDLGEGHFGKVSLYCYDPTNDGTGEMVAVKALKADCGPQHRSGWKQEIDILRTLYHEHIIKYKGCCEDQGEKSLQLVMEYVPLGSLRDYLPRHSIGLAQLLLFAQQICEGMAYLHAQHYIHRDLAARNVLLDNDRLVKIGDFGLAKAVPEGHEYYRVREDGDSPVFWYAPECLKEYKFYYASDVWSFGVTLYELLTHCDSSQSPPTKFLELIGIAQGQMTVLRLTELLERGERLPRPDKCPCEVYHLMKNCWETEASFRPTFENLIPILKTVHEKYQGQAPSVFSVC

| Compound | pIC50 [1] | pIC50 [2] | IC50 [2] [nM] |
| --- | --- | --- | --- |
| CCC(CC)Cn1ccc2cnc(Nc3cnn(CC(N)=O)c3)nc21 [Example 7, 2-(4-((7-(2-ethylbutyl)-7H-pyrrolo[2,3-d]pyrimidin-2-yl)amino)-1H-pyrazol-1-yl) acetamide] | > 7.00 | 6.00 to 7.00 | – |
| CC[C@H](Cn1ccc2cnc(Nc3cnn(CC(N)=O)c3)nc21)C(C)C [Example 1, (S)-2-(4-((7-(2-ethyl-3-methylbutyl)-7H-pyrrolo[2,3-d]pyrimidin-2-yl)amino)-1H-pyrazol-1-yl) acetamide] | > 7.00 | 6.00 to 7.00 | – |
| CC[C@H](Cn1ccc2cnc(Nc3cnn(CC(=O)N4CCOC4=O)c3)nc21)C(C)C [Example 3, (5)-3-(2-(4-((7-(2-ethyl-3-methylbutyl)-7H-pyrrolo[2,3-d]pyrimidin-2-yl)amino)-1H-pyrazol-1-yl)acetyl) oxazolidin-2-one] | > 7.00 | – | 1000 to 10000 |
| CC[C@@H](Cn1ccc2cnc(Nc3cnn(C4CCNC4=O)c3)nc21)C(C)C (some centres unmarked) [Example 8] | > 7.00 | – | 1000 to 10000 |

— patent US20230024521A1, “JAK INHIBITORS” (Vimalan Biosciences, Inc., priority 2019, published 2023)
